How the values were obtained:
Experiment in all cases: radiometric filter-binding kinase assay
[1] = target: ABL1 (human) (UniProt P00519)
[2] = target: TSSK1B (human) (UniProt Q9BXA7)
[3] = target: PRKCG (human) (UniProt P05129)
[4] = target: SRPK1 (human) (UniProt Q96SB4)
[5] = target: GSK3B (human) (UniProt P49841)
[6] = target: PTK6 (human) (UniProt Q13882)
[7] = target: STK33 (human) (UniProt Q9BYT3)
[8] = tested on: OXSR1 (human), O95747 [T185E]
[9] = target: STK16 (human) (UniProt O75716)
[10] = target: ZAP70 (human) (UniProt P43403)
Sequence of ZAP70 (human) (P43403 whole entry, looked up): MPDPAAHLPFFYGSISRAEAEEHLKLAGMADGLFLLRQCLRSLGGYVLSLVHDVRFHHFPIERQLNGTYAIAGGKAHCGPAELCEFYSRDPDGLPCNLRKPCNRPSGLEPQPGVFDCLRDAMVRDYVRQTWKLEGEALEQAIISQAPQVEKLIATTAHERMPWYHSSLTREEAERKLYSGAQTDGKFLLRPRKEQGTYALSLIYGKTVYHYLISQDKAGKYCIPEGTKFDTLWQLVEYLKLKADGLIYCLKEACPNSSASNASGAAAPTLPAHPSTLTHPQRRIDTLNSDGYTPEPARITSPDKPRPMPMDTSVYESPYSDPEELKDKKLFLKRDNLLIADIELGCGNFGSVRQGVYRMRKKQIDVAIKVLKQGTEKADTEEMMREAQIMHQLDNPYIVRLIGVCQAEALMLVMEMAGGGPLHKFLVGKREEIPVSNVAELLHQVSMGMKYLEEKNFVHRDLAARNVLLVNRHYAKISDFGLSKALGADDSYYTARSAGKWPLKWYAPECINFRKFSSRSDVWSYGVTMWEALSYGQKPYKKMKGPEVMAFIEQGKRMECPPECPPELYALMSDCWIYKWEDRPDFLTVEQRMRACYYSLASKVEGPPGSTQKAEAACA

[11] = target: IRAK1 (human) (UniProt P51617)
Sequence of IRAK1 (human) (P51617 whole entry, looked up): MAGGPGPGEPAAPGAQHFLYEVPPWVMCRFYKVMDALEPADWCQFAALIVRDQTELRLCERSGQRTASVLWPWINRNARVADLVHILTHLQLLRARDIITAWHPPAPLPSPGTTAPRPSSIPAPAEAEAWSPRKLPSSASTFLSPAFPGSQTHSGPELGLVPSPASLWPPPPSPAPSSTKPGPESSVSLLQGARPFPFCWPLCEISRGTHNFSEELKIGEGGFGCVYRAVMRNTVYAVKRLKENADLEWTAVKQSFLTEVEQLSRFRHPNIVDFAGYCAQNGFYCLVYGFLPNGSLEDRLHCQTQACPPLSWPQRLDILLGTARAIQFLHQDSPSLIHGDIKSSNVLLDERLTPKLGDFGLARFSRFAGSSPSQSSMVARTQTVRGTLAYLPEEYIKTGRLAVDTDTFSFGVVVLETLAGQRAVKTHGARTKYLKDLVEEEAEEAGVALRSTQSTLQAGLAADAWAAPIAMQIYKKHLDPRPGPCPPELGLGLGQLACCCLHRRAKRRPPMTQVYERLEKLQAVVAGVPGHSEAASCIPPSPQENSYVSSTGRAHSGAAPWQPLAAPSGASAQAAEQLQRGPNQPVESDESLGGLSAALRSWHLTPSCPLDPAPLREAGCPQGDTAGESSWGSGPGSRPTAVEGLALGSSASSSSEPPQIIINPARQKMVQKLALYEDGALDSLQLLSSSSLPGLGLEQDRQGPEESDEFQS

[12] = target: TTBK1 (human) (UniProt Q5TCY1)
Sequence of TTBK1 (human) (Q5TCY1 whole entry, looked up): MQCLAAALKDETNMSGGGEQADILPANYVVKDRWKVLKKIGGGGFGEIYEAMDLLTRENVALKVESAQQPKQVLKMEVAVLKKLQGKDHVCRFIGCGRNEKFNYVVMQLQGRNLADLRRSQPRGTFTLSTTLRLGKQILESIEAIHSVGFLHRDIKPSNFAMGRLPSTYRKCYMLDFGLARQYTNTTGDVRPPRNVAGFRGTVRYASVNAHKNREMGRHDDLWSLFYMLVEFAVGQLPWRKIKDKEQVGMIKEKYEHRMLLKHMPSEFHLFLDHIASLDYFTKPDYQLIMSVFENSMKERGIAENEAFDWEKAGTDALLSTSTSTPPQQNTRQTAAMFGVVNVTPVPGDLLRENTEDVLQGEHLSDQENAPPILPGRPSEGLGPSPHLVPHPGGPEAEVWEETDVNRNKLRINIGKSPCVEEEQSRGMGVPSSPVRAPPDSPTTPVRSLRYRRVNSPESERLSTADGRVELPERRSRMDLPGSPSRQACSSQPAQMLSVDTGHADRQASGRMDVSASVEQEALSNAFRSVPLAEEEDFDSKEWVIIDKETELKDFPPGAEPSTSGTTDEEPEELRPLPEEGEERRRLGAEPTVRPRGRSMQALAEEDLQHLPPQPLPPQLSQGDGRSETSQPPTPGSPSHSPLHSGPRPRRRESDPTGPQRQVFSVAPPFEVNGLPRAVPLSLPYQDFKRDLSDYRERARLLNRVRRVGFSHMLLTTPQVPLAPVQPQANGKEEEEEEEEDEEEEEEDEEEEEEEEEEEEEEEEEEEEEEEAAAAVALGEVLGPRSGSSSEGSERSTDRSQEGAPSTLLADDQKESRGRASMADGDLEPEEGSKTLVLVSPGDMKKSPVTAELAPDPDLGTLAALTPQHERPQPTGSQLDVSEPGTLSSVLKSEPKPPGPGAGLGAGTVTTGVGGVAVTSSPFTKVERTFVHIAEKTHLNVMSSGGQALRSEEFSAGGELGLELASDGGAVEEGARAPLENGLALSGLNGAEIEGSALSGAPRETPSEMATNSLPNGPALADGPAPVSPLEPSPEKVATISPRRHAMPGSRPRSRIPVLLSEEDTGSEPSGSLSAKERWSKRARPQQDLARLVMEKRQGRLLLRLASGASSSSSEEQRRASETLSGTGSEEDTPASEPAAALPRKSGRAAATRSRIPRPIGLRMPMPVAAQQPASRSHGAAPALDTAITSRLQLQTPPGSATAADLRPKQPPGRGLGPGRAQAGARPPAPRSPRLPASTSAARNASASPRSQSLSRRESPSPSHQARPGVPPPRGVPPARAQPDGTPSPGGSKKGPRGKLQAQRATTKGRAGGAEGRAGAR

[13] = target: EIF2AK3 (human) (UniProt Q9NZJ5)
[14] = target: TLK1 (human) (UniProt Q9UKI8)
[15] = target: TESK1 (human) (UniProt Q15569)
[16] = target: TEK (human) (UniProt Q02763)
Sequence of TEK (human) (Q02763 whole entry, looked up): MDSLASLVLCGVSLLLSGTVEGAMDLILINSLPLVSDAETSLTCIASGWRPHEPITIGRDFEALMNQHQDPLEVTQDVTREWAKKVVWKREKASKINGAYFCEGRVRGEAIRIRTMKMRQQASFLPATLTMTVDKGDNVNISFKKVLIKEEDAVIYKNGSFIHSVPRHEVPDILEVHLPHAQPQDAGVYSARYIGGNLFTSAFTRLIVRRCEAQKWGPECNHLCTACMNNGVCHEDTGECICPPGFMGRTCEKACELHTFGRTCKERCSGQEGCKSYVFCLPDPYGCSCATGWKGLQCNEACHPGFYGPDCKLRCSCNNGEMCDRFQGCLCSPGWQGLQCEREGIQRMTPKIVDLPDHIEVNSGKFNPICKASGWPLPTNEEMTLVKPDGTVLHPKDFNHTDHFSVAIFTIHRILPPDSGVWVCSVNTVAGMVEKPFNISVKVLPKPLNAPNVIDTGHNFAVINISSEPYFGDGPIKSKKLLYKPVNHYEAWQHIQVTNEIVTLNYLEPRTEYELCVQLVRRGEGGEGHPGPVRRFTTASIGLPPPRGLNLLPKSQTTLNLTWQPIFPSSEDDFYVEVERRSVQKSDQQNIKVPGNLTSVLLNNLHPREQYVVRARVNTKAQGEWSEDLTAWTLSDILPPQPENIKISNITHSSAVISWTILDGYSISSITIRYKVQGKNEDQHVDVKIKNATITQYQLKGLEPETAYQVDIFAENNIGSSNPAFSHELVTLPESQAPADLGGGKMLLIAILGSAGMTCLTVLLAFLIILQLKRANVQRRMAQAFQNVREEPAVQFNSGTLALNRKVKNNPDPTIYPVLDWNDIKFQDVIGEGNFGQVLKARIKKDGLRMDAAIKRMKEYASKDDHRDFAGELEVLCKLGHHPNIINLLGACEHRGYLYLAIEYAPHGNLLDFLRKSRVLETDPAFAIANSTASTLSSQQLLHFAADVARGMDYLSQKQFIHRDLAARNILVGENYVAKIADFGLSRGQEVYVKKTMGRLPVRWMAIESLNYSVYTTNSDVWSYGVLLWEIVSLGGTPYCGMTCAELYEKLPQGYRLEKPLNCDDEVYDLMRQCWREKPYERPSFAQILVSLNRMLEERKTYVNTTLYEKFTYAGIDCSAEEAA

Sequence of TSSK1B (human) (Q9BXA7 whole entry, looked up): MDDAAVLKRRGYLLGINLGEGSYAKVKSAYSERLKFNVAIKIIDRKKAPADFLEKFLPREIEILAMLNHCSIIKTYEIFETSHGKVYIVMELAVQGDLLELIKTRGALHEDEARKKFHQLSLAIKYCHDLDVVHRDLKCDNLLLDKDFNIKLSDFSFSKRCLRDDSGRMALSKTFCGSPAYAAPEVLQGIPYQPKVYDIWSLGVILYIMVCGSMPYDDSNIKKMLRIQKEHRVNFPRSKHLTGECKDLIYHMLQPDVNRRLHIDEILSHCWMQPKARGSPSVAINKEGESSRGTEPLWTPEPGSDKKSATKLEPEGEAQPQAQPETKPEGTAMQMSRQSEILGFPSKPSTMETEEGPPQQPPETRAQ

With `NC(=O)c1cc(-c2ccnc(NC3CCCCC3)c2)nc(N2CCNCC2)c1` the residual activity ([1]; compound 0.1 µM) was 102%, the residual activity ([1]; compound 1.0 µM) was 112% and the residual activity ([1]; compound 10.0 µM) was 100%. It also gave a residual activity ([2]; compound 0.1 µM) of 84%, a residual activity ([2]; compound 1.0 µM) of 56% and a residual activity ([2]; compound 10.0 µM) of 12%. It also gave a residual activity ([3]; compound 0.1 µM) of 106%, a residual activity ([3]; compound 1.0 µM) of 103% and a residual activity ([3]; compound 10.0 µM) of 115%. It also gave a residual activity ([4]; compound 0.1 µM) of 105%, a residual activity ([4]; compound 1.0 µM) of 86% and a residual activity ([4]; compound 10.0 µM) of 46%. The residual activity ([5]; compound 0.1 µM) was 86%, the residual activity ([5]; compound 1.0 µM) was 82% and the residual activity ([5]; compound 10.0 µM) was 51%. The residual activity ([6]; compound 0.1 µM) was 114%, the residual activity ([6]; compound 1.0 µM) was 124% and the residual activity ([6]; compound 10.0 µM) was 103%. It also gave a residual activity ([7]; compound 0.1 µM) of 103%, a residual activity ([7]; compound 10.0 µM) of 66% and a residual activity ([8]; compound 0.1 µM) of 98%. For the same compound, the residual activity ([8]; compound 1.0 µM) was 104%, the residual activity ([8]; compound 10.0 µM) was 73% and the residual activity ([9]; compound 0.1 µM) was 100%. The residual activity ([9]; compound 1.0 µM) was 93%, the residual activity ([9]; compound 10.0 µM) was 84% and the residual activity ([10]; compound 0.1 µM) was 108%. The residual activity ([10]; compound 1.0 µM) was 114%, the residual activity ([10]; compound 10.0 µM) was 109% and the residual activity ([11]; compound 0.1 µM) was 92%. For the same compound, the residual activity ([11]; compound 10.0 µM) was 87%, the residual activity ([12]; compound 0.1 µM) was 93% and the residual activity ([12]; compound 10.0 µM) was 93%. It also gave a residual activity ([13]; compound 0.1 µM) of 108%, a residual activity ([13]; compound 1.0 µM) of 101% and a residual activity ([13]; compound 10.0 µM) of 97%. It also gave a residual activity ([14]; compound 0.1 µM) of 91%, a residual activity ([14]; compound 1.0 µM) of 107% and a residual activity ([14]; compound 10.0 µM) of 90%. For the same compound, the residual activity ([15]; compound 0.1 µM) was 99%, the residual activity ([15]; compound 1.0 µM) was 102% and the residual activity ([15]; compound 10.0 µM) was 93%. It also gave a residual activity ([16]; compound 0.1 µM) of 101%, a residual activity ([16]; compound 1.0 µM) of 111% and a residual activity ([16]; compound 10.0 µM) of 84%.
`Cc1ccc(=O)n(-c2ccccc2)c1` gave a residual activity ([1]; compound 1.0 µM) of 106%, a residual activity ([1]; compound 10.0 µM) of 112% and a residual activity ([2]; compound 1.0 µM) of 87%. For the same compound, the residual activity ([2]; compound 10.0 µM) was 91%, the residual activity ([3]; compound 1.0 µM) was 99% and the residual activity ([3]; compound 10.0 µM) was 94%. The residual activity ([4]; compound 1.0 µM) was 95%, the residual activity ([4]; compound 10.0 µM) was 89% and the residual activity ([5]; compound 1.0 µM) was 102%. It also gave a residual activity ([5]; compound 10.0 µM) of 99%, a residual activity ([6]; compound 1.0 µM) of 101% and a residual activity ([6]; compound 10.0 µM) of 92%. It also gave a residual activity ([7]; compound 1.0 µM) of 82%, a residual activity ([7]; compound 10.0 µM) of 90% and a residual activity ([8]; compound 10.0 µM) of 115%. The residual activity ([9]; compound 1.0 µM) was 87%, the residual activity ([9]; compound 10.0 µM) was 96% and the residual activity ([10]; compound 1.0 µM) was 110%. For the same compound, the residual activity ([11]; compound 1.0 µM) was 105%, the residual activity ([12]; compound 1.0 µM) was 124% and the residual activity ([12]; compound 10.0 µM) was 107%. The residual activity ([13]; compound 1.0 µM) was 106%, the residual activity ([13]; compound 10.0 µM) was 105% and the residual activity ([14]; compound 1.0 µM) was 113%. The residual activity ([14]; compound 10.0 µM) was 115%, the residual activity ([15]; compound 1.0 µM) was 94% and the residual activity ([15]; compound 10.0 µM) was 82%. For the same compound, the residual activity ([16]; compound 1.0 µM) was 110% and the residual activity ([16]; compound 10.0 µM) was 118%.
For `CC(C)(C#N)c1ccc(N2C(=O)OCc3cnc4ccc(-c5cnc6ccccc6c5)cc4c32)cc1`, the residual activity ([1]; compound 1.0 µM) was 93%, the residual activity ([1]; compound 10.0 µM) was 103% and the residual activity ([2]; compound 10.0 µM) was 103%. The residual activity ([3]; compound 1.0 µM) was 111%, the residual activity ([3]; compound 10.0 µM) was 99% and the residual activity ([4]; compound 1.0 µM) was 90%. It also gave a residual activity ([4]; compound 10.0 µM) of 89%, a residual activity ([5]; compound 1.0 µM) of 74% and a residual activity ([5]; compound 10.0 µM) of 89%. It also gave a residual activity ([6]; compound 1.0 µM) of 96%, a residual activity ([6]; compound 10.0 µM) of 97% and a residual activity ([7]; compound 10.0 µM) of 98%. For the same compound, the residual activity ([8]; compound 1.0 µM) was 102%, the residual activity ([8]; compound 10.0 µM) was 103% and the residual activity ([9]; compound 1.0 µM) was 87%. It also gave a residual activity ([9]; compound 10.0 µM) of 100%, a residual activity ([10]; compound 1.0 µM) of 75% and a residual activity ([10]; compound 10.0 µM) of 77%. It also gave a residual activity ([11]; compound 1.0 µM) of 79%, a residual activity ([11]; compound 10.0 µM) of 56% and a residual activity ([12]; compound 1.0 µM) of 110%. It also gave a residual activity ([12]; compound 10.0 µM) of 100%, a residual activity ([13]; compound 1.0 µM) of 101% and a residual activity ([13]; compound 10.0 µM) of 97%. The residual activity ([14]; compound 1.0 µM) was 84%, the residual activity ([14]; compound 10.0 µM) was 101% and the residual activity ([15]; compound 1.0 µM) was 116%. For the same compound, the residual activity ([15]; compound 10.0 µM) was 108%, the residual activity ([16]; compound 1.0 µM) was 93% and the residual activity ([16]; compound 10.0 µM) was 95%.
In the case of `COc1ccc(-n2ncc3cnc(Nc4cc(OC)c(OC)c(OCCCN5CCN(C)CC5)c4)nc32)cc1`, the residual activity ([1]; compound 0.1 µM) is reported as 31%, the residual activity ([1]; compound 1.0 µM) is reported as 7% and the residual activity ([2]; compound 0.1 µM) is reported as 31%. For the same compound, the residual activity ([2]; compound 1.0 µM) was 5%, the residual activity ([3]; compound 0.1 µM) was 117% and the residual activity ([3]; compound 1.0 µM) was 71%. For the same compound, the residual activity ([4]; compound 0.1 µM) was 104%, the residual activity ([4]; compound 1.0 µM) was 87% and the residual activity ([5]; compound 0.1 µM) was 37%. For the same compound, the residual activity ([5]; compound 1.0 µM) was 6%, the residual activity ([6]; compound 0.1 µM) was 46% and the residual activity ([6]; compound 1.0 µM) was 6%. It also gave a residual activity ([7]; compound 0.1 µM) of 30%, a residual activity ([7]; compound 1.0 µM) of 23% and a residual activity ([8]; compound 0.1 µM) of 101%. The residual activity ([8]; compound 1.0 µM) was 71%, the residual activity ([9]; compound 0.1 µM) was 101% and the residual activity ([9]; compound 1.0 µM) was 42%. The residual activity ([10]; compound 0.1 µM) was 54%, the residual activity ([10]; compound 1.0 µM) was 22% and the residual activity ([11]; compound 0.1 µM) was 19%. For the same compound, the residual activity ([11]; compound 1.0 µM) was 5%, the residual activity ([12]; compound 0.1 µM) was 104% and the residual activity ([12]; compound 1.0 µM) was 102%. For the same compound, the residual activity ([13]; compound 1.0 µM) was 31%, the residual activity ([14]; compound 0.1 µM) was 79% and the residual activity ([14]; compound 1.0 µM) was 39%. The residual activity ([15]; compound 0.1 µM) was 59%, the residual activity ([15]; compound 1.0 µM) was 24% and the residual activity ([16]; compound 0.1 µM) was 60%. For the same compound, the residual activity ([16]; compound 1.0 µM) was 11%.
`O=C(N[C@@H](COc1ccc2[nH]c(=O)[nH]c2c1)c1ccccc1)c1cccn(Cc2ccc(F)c(F)c2)c1=O` showed a residual activity ([1]; compound 0.1 µM) of 106%, a residual activity ([1]; compound 1.0 µM) of 105% and a residual activity ([1]; compound 10.0 µM) of 98%. It also gave a residual activity ([2]; compound 0.1 µM) of 93%, a residual activity ([2]; compound 1.0 µM) of 103% and a residual activity ([2]; compound 10.0 µM) of 86%. For the same compound, the residual activity ([3]; compound 0.1 µM) was 91%, the residual activity ([3]; compound 1.0 µM) was 103% and the residual activity ([4]; compound 0.1 µM) was 107%. It also gave a residual activity ([4]; compound 1.0 µM) of 114%, a residual activity ([4]; compound 10.0 µM) of 101% and a residual activity ([5]; compound 0.1 µM) of 97%. It also gave a residual activity ([5]; compound 1.0 µM) of 96%, a residual activity ([5]; compound 10.0 µM) of 64% and a residual activity ([6]; compound 0.1 µM) of 120%. For the same compound, the residual activity ([6]; compound 1.0 µM) was 129%, the residual activity ([6]; compound 10.0 µM) was 119% and the residual activity ([7]; compound 0.1 µM) was 92%. For the same compound, the residual activity ([7]; compound 1.0 µM) was 107%, the residual activity ([7]; compound 10.0 µM) was 79% and the residual activity ([8]; compound 0.1 µM) was 97%. The residual activity ([8]; compound 1.0 µM) was 96%, the residual activity ([8]; compound 10.0 µM) was 83% and the residual activity ([9]; compound 0.1 µM) was 101%. The residual activity ([9]; compound 1.0 µM) was 118%, the residual activity ([9]; compound 10.0 µM) was 106% and the residual activity ([10]; compound 0.1 µM) was 102%. For the same compound, the residual activity ([10]; compound 1.0 µM) was 106%, the residual activity ([11]; compound 0.1 µM) was 117% and the residual activity ([11]; compound 1.0 µM) was 118%. It also gave a residual activity ([11]; compound 10.0 µM) of 108%, a residual activity ([12]; compound 0.1 µM) of 101% and a residual activity ([12]; compound 1.0 µM) of 110%. For the same compound, the residual activity ([12]; compound 10.0 µM) was 106%, the residual activity ([13]; compound 0.1 µM) was 107% and the residual activity ([13]; compound 1.0 µM) was 104%. For the same compound, the residual activity ([13]; compound 10.0 µM) was 96%, the residual activity ([14]; compound 0.1 µM) was 97% and the residual activity ([14]; compound 1.0 µM) was 103%. The residual activity ([14]; compound 10.0 µM) was 99%, the residual activity ([15]; compound 0.1 µM) was 98% and the residual activity ([15]; compound 1.0 µM) was 88%. The residual activity ([15]; compound 10.0 µM) was 107%, the residual activity ([16]; compound 0.1 µM) was 104% and the residual activity ([16]; compound 1.0 µM) was 100%. For the same compound, the residual activity ([16]; compound 10.0 µM) was 96%.
